Reference: PubChem BioAssay (NCI)
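Interpolation was linear, between the two tested concentrations surrounding the appropriate level; five concentrations were tested over 48 hours in 96-well plates. Abbreviation: GI50, concentration required for 50% inhibition of growth. Definition used: TGI = concentration required for complete inhibition of growth.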

What was measured:
Experiment in all cases: growth of human tumour cells (NCI), 48 h
SF-539 CNS = test system: SF-539 CNS
KM12 colon = test system: KM12 colon
U251 CNS = test system: U251 CNS
SK-MEL-5 melanoma = test system: SK-MEL-5 melanoma
UACC-62 melanoma = test system: UACC-62 melanoma
LOX IMVI melanoma = test system: LOX IMVI melanoma
NCI-H460 lung = test system: NCI-H460 lung
OVCAR-8 ovarian = test system: OVCAR-8 ovarian
RPMI-8226 leukemia = test system: RPMI-8226 leukemia
HCT-15 colon = test system: HCT-15 colon

SMILES	GI50 (SF-539 CNS) [µM]	TGI (SF-539 CNS) [µM]	GI50 (KM12 colon) [µM]	TGI (KM12 colon) [µM]	GI50 (U251 CNS) [µM]	TGI (U251 CNS) [µM]	GI50 (SK-MEL-5 melanoma) [µM]	TGI (SK-MEL-5 melanoma) [µM]	GI50 (UACC-62 melanoma) [µM]	TGI (UACC-62 melanoma) [µM]	GI50 (LOX IMVI melanoma) [µM]	TGI (LOX IMVI melanoma) [µM]	GI50 (NCI-H460 lung) [µM]	TGI (NCI-H460 lung) [µM]	GI50 (OVCAR-8 ovarian) [µM]	TGI (OVCAR-8 ovarian) [µM]	GI50 (RPMI-8226 leukemia) [µM]	TGI (RPMI-8226 leukemia) [µM]	GI50 (HCT-15 colon) [µM]	TGI (HCT-15 colon) [µM]
COc1ccc(-c2nn3ncccc3c2-c2ccnc(Nc3ccc(F)c(F)c3)n2)cc1	> 19.2	> 25	9.45	> 25	10.3	> 25	8.08	> 25	7.12	> 25	7.42	> 25	7.4	> 25	11.2	> 25	14.7	> 25	8.77	> 25
COc1ccc(-c2cc(=O)c3c(C)ccnc3[nH]2)cc1		72.2		23.2	6.3	> 100	3.87	14.7		32.6		> 100	6.19	> 100		> 100		53		> 100
CCOc1cc(/C=C/C(=O)CC(=O)/C=C/c2ccc(OC(=O)CNc3nc4ccc(OC)cc4s3)c(OCC)c2)ccc1OC(=O)CNc1nc2ccc(OC)cc2s1	2.12	5.14	2.96	12.1	3.93	14.5	5.25	17.2	7.6	20.3	3.28	12.1	5.1	23.4	2.5	6.32	1.69	4.29	5.24	22.6
CCN(Cc1ccccc1)c1ccc(/C=C2\COc3ccccc3C2=O)cc1	> 1000	> 1000	376	> 1000	> 1000	> 1000	398	> 1000	304	> 1000	243	> 1000	> 1000	> 1000	> 1000	> 1000	146	> 1000	106	> 1000
Clc1ccc2c(NC3CCC(NC4CCCCC4)CC3)ccnc2c1 (stereo not drawn)	2.03	4.13	5.34	18.9	3.6	13.3	1.77	3.2	3.26	12.5	1.75	4.29	5.27	18.6	4.43	19.3	2.26	14.5	3.52	12.8
N#Cc1nc2cc(Cl)c(Cl)cc2nc1-c1ccc(Cl)cc1	46.2	> 100	> 60.5	> 100	19.3	39.3	44.3	> 100	33.2	> 70.9	71	> 100	37.6	> 100	55.7	> 100	24.3	> 100	> 71.9	> 100
CN1CCN(c2ccc3nc(-c4[nH]ncc4Nc4ncnc5[nH]ccc45)[nH]c3c2)CC1	0.176	0.496	0.517	11.6	0.234	11.4	0.367	2.15	0.241	1.56	0.148	0.906	2.68	9.78	0.381	> 31.1	5.92	19.3	1.38	13.3
CC(NC(=O)c1ccc(Cl)c(Cl)c1)c1ccc(-c2ccccc2)cc1 (stereo not drawn)		42.9		> 100		> 100		> 100		> 100		> 100		> 100		82.5		> 100		> 100
C=CCn1c(SCC(=O)Nc2ccc(C(=O)/C=C/c3cc(OC)c(OC)c(OC)c3)cc2)nnc1-c1cc(OC)c(OC)c(OC)c1	2.52	8.83	2.82	8.18	2.15	5.38	4.27	16	3.31	17.5	2.3	6.53	3.76	14.5	5.94	34.9	1.51	4.91	1.86	5.61
CC(C)Cn1cnc2c(N)nc3ccccc3c21	42.9	> 100	56.6	> 100	47.5	> 100	18.4	50.3	38.4	> 100	25.7	> 100	23.1	> 100	67.5	> 100	5.5	> 48.3	29.7	> 100
